From patent publication US5385894A, “Disubstituted 6-aminoquinazolinones” (Merck & Co., Inc., priority 1994, dated 1995)

Test: log P (Table 1)
Format: physicochemical

Row | logP | log P | Compound
1 | 5.1 | – | CCCc1nc2ccc(N(CCC)C(=O)OCC(C)C)cc2c(=O)n1Cc1ccc(-c2ccccc2-c2nnn[nH]2)cc1 [Example 10]
2 | 5 | – | CCCOC(=O)N(Cc1ccccc1)c1ccc2nc(CCC)n(Cc3ccc(-c4ccccc4-c4nnn[nH]4)cc3)c(=O)c2c1 [Example 17]
3 | 6 | – | CCCCOC(=O)N(CCCC)c1ccc2nc(CCC)n(Cc3ccc(-c4ccccc4-c4nn[nH]n4)cc3)c(=O)c2c1 [Example 24]
4 | 4.3 | – | CCCc1nc2ccc(N(Cc3ccccc3)C(=O)N(C)CC)cc2c(=O)n1Cc1ccc(-c2ccccc2-c2nn[nH]n2)cc1 [Example 30]
5 | 5.1 | – | CCCCCN(C(=O)c1ccccc1)c1ccc2nc(CCC)n(Cc3ccc(-c4ccccc4-c4nn[nH]n4)cc3)c(=O)c2c1 [Example 33, 2-propyl-6-(N-benzoyl-N-pentyl)-amino-3[(2'-(tetrazol-5-yl)biphen-4-yl)methyl]quinazolin-4(3H)-one]
6 | 4.3 | – | CCCCCN(C(=O)c1ccncc1)c1ccc2nc(CCC)n(Cc3ccc(-c4ccccc4-c4nnn[nH]4)cc3)c(=O)c2c1 [Example 35]
7 | 4.5 | – | CCCc1nc2ccc(N(Cc3ccccc3)C(=O)c3ccccc3)cc2c(=O)n1Cc1ccc(-c2ccccc2-c2nn[nH]n2)cc1 [Example 36]
8 | > 6 | – | CCCCCN(C(=O)c1ccc(Cl)cc1)c1ccc2nc(CCC)n(Cc3ccc(-c4ccccc4-c4nn[nH]n4)cc3)c(=O)c2c1 [Example 37]
9 | 5.4 | – | CCCCC(=O)N(Cc1ccccc1)c1ccc2nc(CCC)n(Cc3ccc(-c4ccccc4-c4nn[nH]n4)cc3)c(=O)c2c1 [Example 42]
10 | 5.2 | – | CCCCCN(C(=O)c1ccc(F)cc1)c1ccc2nc(CCC)n(Cc3ccc(-c4ccccc4-c4nn[nH]n4)cc3)c(=O)c2c1 [Example 43]
11 | 4.7 | – | CCCCN(C(=O)c1ccc(F)cc1)c1ccc2nc(CCC)n(Cc3ccc(-c4ccccc4-c4nn[nH]n4)cc3)c(=O)c2c1 [Example 44]
12 | 4.7 | – | CCCc1nc2ccc(N(Cc3ccccc3)C(=O)OCC)cc2c(=O)n1Cc1ccc(-c2ccccc2-c2nn[nH]n2)cc1 [Example 56]
13 | 4.1 | – | CCc1nc2ccc(N(Cc3ccccc3)C(=O)c3ccccc3)cc2c(=O)n1Cc1ccc(-c2ccccc2-c2nnn[nH]2)cc1 [Example 57]
14 | 4.1 | – | CCCCN(C(=O)c1ccncc1)c1ccc2nc(CCC)n(Cc3ccc(-c4ccccc4-c4nn[nH]n4)cc3)c(=O)c2c1 [Example 68]
15 | – | 3.5 | Cc1nc2ccc(N(Cc3ccccc3)C(=O)c3ccccc3)cc2c(=O)n1Cc1ccc(-c2ccccc2-c2nnn[nH]2)cc1 [Example 69]
16 | – | 4.5 | CC(C)c1nc2ccc(N(Cc3ccccc3)C(=O)c3ccccc3)cc2c(=O)n1Cc1ccc(-c2ccccc2-c2nnn[nH]2)cc1 [Example 70]
17 | 4.3 | – | CCCCCN(C(=O)c1cccnc1)c1ccc2nc(CCC)n(Cc3ccc(-c4ccccc4-c4nn[nH]n4)cc3)c(=O)c2c1 [Example 72]
18 | 5.3 | – | CCCCCN(C(=O)c1ccccc1)c1ccc2nc(CCC)n(Cc3ccc(-c4ccccc4S(=O)(=O)NC(=O)C4CC4)cc3)c(=O)c2c1 [Example 73]
19 | 5.5 | – | CCCCCN(C(=O)c1ccccc1)c1ccc2nc(CCC)n(Cc3ccc(-c4ccccc4S(=O)(=O)NC(=O)c4ccccc4)cc3)c(=O)c2c1 [Example 74]
20 | – | 3.4 | CCc1nc2ccc(N(Cc3ccccc3)C(=O)c3ccncc3)cc2c(=O)n1Cc1ccc(-c2ccccc2-c2nn[nH]n2)cc1 [Example 75]
21 | 4.3 | – | CCCCCN(C(=O)c1ccc([S+](C)[O-])cc1)c1ccc2nc(CCC)n(Cc3ccc(-c4ccccc4-c4nn[nH]n4)cc3)c(=O)c2c1 (centres unmarked) [Example 81]
22 | 4.4 | – | CCCCCN(C(=O)c1ccc(S(C)(=O)=O)cc1)c1ccc2nc(CCC)n(Cc3ccc(-c4ccccc4-c4nn[nH]n4)cc3)c(=O)c2c1 [Example 83]

Row | logP | log P | Compound
23 | 4.4 | – | CCc1nc2ccc(N(Cc3ccccc3Cl)C(=O)c3ccccc3)cc2c(=O)n1Cc1ccc(-c2ccccc2-c2nn[nH]n2)cc1 [Example 84]
24 | – | 4.2 | CCc1nc2ccc(N(CC=C(C)C)C(=O)c3ccccc3)cc2c(=O)n1Cc1ccc(-c2ccccc2-c2nn[nH]n2)cc1 [Example 85]
25 | 4.3 | – | CCCc1nc2ccc(N(CCC)C(=O)c3ccc(F)cc3)cc2c(=O)n1Cc1ccc(-c2ccccc2-c2nn[nH]n2)cc1 [Example 90]
26 | 4.8 | – | CC(C)c1nc2ccc(N(Cc3ccccc3Cl)C(=O)C3CC3)cc2c(=O)n1Cc1ccc(-c2ccccc2-c2nn[nH]n2)cc1 [Example 94]
27 | 3.3 | – | O=C(c1ccccc1)N(Cc1ccccc1)c1ccc2ncn(Cc3ccc(-c4ccccc4-c4nn[nH]n4)cc3)c(=O)c2c1 [Example 95]
28 | 4.9 | – | CCC(C)c1nc2ccc(N(Cc3ccccc3)C(=O)c3ccccc3)cc2c(=O)n1Cc1ccc(-c2ccccc2-c2nn[nH]n2)cc1 (centres unmarked) [Example 100]
29 | 4.5 | – | CCCc1nc2ccc(N(CC(C)C)C(=O)c3ccccc3)cc2c(=O)n1Cc1ccc(-c2ccccc2-c2nnn[nH]2)cc1 [Example 102]
30 | 4.1 | – | CCCc1nc2ccc(N(CCCC(=O)OCC)C(=O)c3ccccc3)cc2c(=O)n1Cc1ccc(-c2ccccc2-c2nnn[nH]2)cc1 [Example 103]
31 | 5.7 | – | CCCCCN(C(=O)c1ccccc1)c1ccc2nc(CCC)n(Cc3ccc(-c4ccccc4NS(=O)(=O)C(F)(F)F)cc3)c(=O)c2c1 [Example 104]
32 | 2.3 | – | CCCc1nc2ccc(N(CCCC(=O)O)C(=O)c3ccccc3)cc2c(=O)n1Cc1ccc(-c2ccccc2-c2nnn[nH]2)cc1 [Example 105]
33 | 3.8 | – | Cc1nc2ccc(N(Cc3ccccc3Cl)C(=O)c3ccccc3)cc2c(=O)n1Cc1ccc(-c2ccccc2-c2nn[nH]n2)cc1 [Example 106]
34 | 2.9 | – | Cc1nc2ccc(N(Cc3ccccc3)C(=O)c3ccncc3)cc2c(=O)n1Cc1ccc(-c2ccccc2-c2nnn[nH]2)cc1 [Example 107]
35 | 2.9 | – | CCCc1nc2ccc(N(C)C(C)=O)cc2c(=O)n1Cc1ccc(-c2ccccc2S(=O)(=O)NC(=O)C2CC2)cc1 [Example 108]
36 | 3.1 | – | Cc1nc2ccc(N(Cc3ccccc3Cl)C(=O)c3ccncc3)cc2c(=O)n1Cc1ccc(-c2ccccc2-c2nnn[nH]2)cc1 [Example 110]
37 | 5 | – | CCc1nc2ccc(N(Cc3ccc(I)cc3)C(=O)c3ccccc3)cc2c(=O)n1Cc1ccc(-c2ccccc2-c2nnn[nH]2)cc1 [Example 112]
38 | 5.1 | – | CCCCCN(C(=O)c1cccs1)c1ccc2nc(CCC)n(Cc3ccc(-c4ccccc4-c4nnn[nH]4)cc3)c(=O)c2c1 [Example 113]
39 | 3.4 | – | CCCc1nc2ccc(N(C)C(=O)c3cccs3)cc2c(=O)n1Cc1ccc(-c2ccccc2-c2nnn[nH]2)cc1 [Example 114]
40 | 4.6 | – | CCc1nc2ccc(N(Cc3ccccc3I)C(=O)c3ccccc3)cc2c(=O)n1Cc1ccc(-c2ccccc2-c2nn[nH]n2)cc1 [Example 117]
41 | – | 4.1 | CCc1nc2ccc(N(Cc3ccccc3)C(=O)c3cccs3)cc2c(=O)n1Cc1ccc(-c2ccccc2-c2nn[nH]n2)cc1 [Example 118]
42 | 3 | – | CCCc1nc2ccc(N(CCOC)C(=O)c3ccncc3)cc2c(=O)n1Cc1ccc(-c2ccccc2-c2nnn[nH]2)cc1 [Example 119]
43 | 2.1 | – | CCCc1nc2ccc(N(CC(=O)O)C(=O)c3ccccc3)cc2c(=O)n1Cc1ccc(-c2ccccc2-c2nnn[nH]2)cc1 [Example 120]
44 | 4.6 | – | CCCCCN(C(=O)c1ccc(Cl)cc1)c1ccc2nc(COC)n(Cc3ccc(-c4ccccc4-c4nnn[nH]4)cc3)c(=O)c2c1 [Example 121]
